Data as given in patent US20240182453A1, “NOVEL SUBSTITUTED PYRAZINE-CARBOXAMIDE DERIVATIVES” (Boehringer Ingelheim International GmbH, priority 2022, published 2024).

Target: human metabotropic Glutamate 4 receptor (mGluR4) (Homo sapiens (Human), UniProt Q14833)
Experiment: Assay A: in vitro testing of mGluR4 potency (glutamate-induced cAMP lowering, HTRF cAMP)
Assay type: cell-based
Conditions: HEK293 cells overexpressing human mGluR4; 10 uM L-glutamic acid, 1 uM forskolin; compounds of the present invention
Description: A. In Vitro Testing of mGluR4 Potency
The in vitro activity of the compounds according to the invention may be investigated as follows:
The HEK293 cell overexpressing the human metabotropic Glutamate 4 receptor are thawed at 37° C. and immediately diluted with cell culture medium. After centrifugation, the cell pellet is re-suspended in medium and then distributed from a stirred spinner flask into the wells of the assay plate. The plates are incubated for one hour at room temperature before they are incubated for 24 hours at 37° C./5% CO2. After washing the cells in the plate three times with 80 uL HBSS/HEPES buffer (10 uL buffer remained in the wells after washing), 5 uL per well of compounds diluted in HBSS/HEPES buffer containing 0.2% BSA (final concentration: 0.1%) and 1 mM IBMX (final concentration: 0.5 mM) are added to the wells of the assay plate. Thereafter 5 uL per well of L-Glutamic acid (final concentration: 10 uM), forskolin (final concentration: 1 uM) and 1 mM IBMX (final concentration: 0.5 mM) dissolved in HBSS/HEPES buffer containing 0.2% BSA (final concentration: 0.1%) are added to the assay plate (final DMSO concentration: 1%). Several wells of the assay plate are used either for the positive and the negative controls or for the cAMP standard curve. The assay plate is incubated for 30 minutes at room temperature. Then 5 ul per well of Anti-cAMP-Antibody-d2 solution and 5 ul per well of cAMP-Europium Cryptate dilution are added to all wells of the plate and the plate is incubated another 60 minutes light protected at room temperature. The emission at 615 nm and 665 nm (Excitation wavelength: 320 nm) are measured on the EnVision™ reader (Perkin Elmer). The ratio between the emission at 665 nm and 615 is calculated by the reader. The whole assay is performed in the dark or under green light.
The cAMP standard is prepared by diluting the cAMP stock solution with HBSS/Hepes buffer: 5 μl/well of the cAMP dilutions (in HBSS/Hepes buffer containing 1 mM IBMX and 0.2% BSA—final concentration: 0.5 mM IBMX and 0.1% BSA) are added to 10 ul/well HBSS/Hepes buffer plus 5 ul/well 4% DMSO in HBSS/Hepes containing 0.2% BSA (final DMSO concentration: 1%—like in the wells containing compounds) in the wells of the assay plate. The final cAMP concentrations in the assay plate are: 0, 0.17, 0.69, 2.78, 11.1, 44.5, 178, and 712 nM (two wells/cAMP concentration).
Each assay microtiter plate contained also wells with vehicle controls instead of compound as controls for L-Glutamic acid induced signal (negative control; 100% CTL; 10 uM L-Glutamic acid+1 uM forskolin+0.5 mM IBMX+1% DMSO) and wells with vehicle controls without L-Glutamic acid as controls for non-specific changes in signal (positive control; 0% CTL; 0 uM L-Glutamic acid+1 uM forskolin+0.5 mM IBMX+1% DMSO).
The analysis of the data is performed by the calculation the ratio between the emission at 665 nm and the emission at 615 nm (Em665/Em615 ratio). Thereafter the signals of the compounds are normalized using the positive and negative controls by the following formula:
PoC=100×((Signal Sample−Positive Control)/(Negative Control−Positive Control))

Sequence of human metabotropic Glutamate 4 receptor (mGluR4) (Q14833 33-912): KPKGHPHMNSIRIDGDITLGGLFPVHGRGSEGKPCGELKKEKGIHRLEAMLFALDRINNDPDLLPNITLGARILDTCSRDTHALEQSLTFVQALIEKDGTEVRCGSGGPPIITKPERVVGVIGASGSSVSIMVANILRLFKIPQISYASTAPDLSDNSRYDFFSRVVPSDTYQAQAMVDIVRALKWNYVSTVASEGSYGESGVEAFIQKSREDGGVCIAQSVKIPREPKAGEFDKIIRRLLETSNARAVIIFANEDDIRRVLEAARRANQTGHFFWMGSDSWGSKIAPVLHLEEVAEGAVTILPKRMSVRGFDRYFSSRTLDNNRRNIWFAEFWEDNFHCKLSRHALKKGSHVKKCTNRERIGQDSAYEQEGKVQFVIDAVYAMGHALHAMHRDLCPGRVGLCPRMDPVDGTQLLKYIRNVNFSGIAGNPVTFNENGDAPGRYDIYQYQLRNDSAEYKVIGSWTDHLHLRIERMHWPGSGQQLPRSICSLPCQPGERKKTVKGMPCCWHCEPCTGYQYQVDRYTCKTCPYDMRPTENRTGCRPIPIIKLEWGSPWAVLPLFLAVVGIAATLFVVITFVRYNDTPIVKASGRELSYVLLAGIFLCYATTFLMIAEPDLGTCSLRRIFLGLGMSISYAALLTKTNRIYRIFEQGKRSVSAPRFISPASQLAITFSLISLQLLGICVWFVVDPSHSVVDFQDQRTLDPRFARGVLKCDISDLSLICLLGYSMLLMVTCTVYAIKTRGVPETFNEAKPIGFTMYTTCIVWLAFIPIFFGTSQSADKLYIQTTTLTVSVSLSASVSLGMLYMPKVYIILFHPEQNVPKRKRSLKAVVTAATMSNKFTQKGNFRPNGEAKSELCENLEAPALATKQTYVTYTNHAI

| Structure (SMILES) | IC50 [nM] |
| --- | --- |
| Cc1cnc(C(=O)N[C@H](c2nc3cc(C(F)(F)F)ccc3n2C)[C@]2(O)CCCOC2)cn1 [Example 32, N-[(R)-[(3R)-3-hydroxyoxaN-3-yl][1-methyl-5-(trifluoromethyl)-1H-1,3-benzodiazol-2-yl]methyl]-5-methylpyrazine-2-carboxamide] | 16 |
| CO[C@H](C)[C@H](NC(=O)c1cnc(C)cn1)c1nc2cc(OC(F)(F)F)ccc2n1C1CC1 [Example 131, N-[(1R,2R)-1-[1-cyclopropyl-5-(trifluoromethoxy)-1H-1,3-benzodiazol-2-yl]-2-methoxypropyl]-5-methylpyrazine-2-carboxamide] | 14 |
| CO[C@H](C)[C@H](NC(=O)c1cnc(C)cn1)c1nc2cc(Br)c(F)cc2n1C [Example 26, N-[(1R,2R)-1-(5-bromo-6-fluoro-1-methyl-1H-1,3-benzodiazol-2-yl)-2-methoxypropyl]-5-methylpyrazine-2-carboxamide] | 7 |
| Cc1cnc(C(=O)N[C@H](c2nc3cc(Br)c(F)cc3n2C)C2CC2)cn1 [Example 52, N-[(S)-(5-bromo-6-fluoro-1-methyl-1H-1,3-benzodiazol-2-yl) (cyclopropyl)methyl]-5-methylpyrazine-2-carboxamide] | 5 |
| Cc1cnc(C(=O)N[C@H](c2nc3ccc(C(F)(F)F)cc3n2CC(F)F)C2CC2)cn1 [Example 138, N-[(S)-cyclopropyl[1-(2,2-difluoroethyl)-6-(trifluoromethyl)-1H-1,3-benzodiazol-2-yl]methyl]-5-methylpyrazine-2-carboxamide] | 3 |
| COCCn1c([C@@H](NC(=O)c2cnc(C(F)(F)F)cn2)[C@@H](C)OC)nc2cc(OC(F)(F)F)ccc21 [Example 124, N-[(1R,2R)-2-methoxy-1-[1-(2-methoxyethyl)-5-(trifluoromethoxy)-1H-1,3-benzodiazol-2-yl]propyl]-5-(trifluoromethyl)pyrazine-2-carboxamide] | 4 |
| Cc1cnc(C(=O)NC(c2nc3cc(C(F)(F)F)ccc3n2CC(F)F)C2CCOC2)cn1 (single isomer, unassigned) [Example 141, N-{[1-(2,2-difluoroethyl)-5-(trifluoromethyl)-1H-1,3-benzodiazol-2-yl](oxolan-3-yl)methyl}-5-methylpyrazine-2-carboxamide] | 31 |
| CO[C@H](C)[C@H](NC(=O)c1cnc(C)cn1)c1nc2cc(Cl)ccc2n1C [Example 29, N-[(1R,2R)-1-(5-chloro-1-methyl-1H-1,3-benzodiazol-2-yl)-2-methoxypropyl]-5-methylpyrazine-2-carboxamide] | 11 |
| Cc1cnc(C(=O)N[C@H](c2nc3c(C)c(C#N)ccc3n2CC(F)F)C2CC2)cn1 [Example 44, N-[(S)-[5-cyano-1-(2,2-difluoroethyl)-4-methyl-1H-1,3-benzodiazol-2-yl](cyclopropyl)methyl]-5-methylpyrazine-2-carboxamide] | 5 |
| COC[C@@H](C)n1c([C@@H](NC(=O)c2cnc(C)cn2)[C@@H](C)OC)nc2cc(OC(F)(F)F)ccc21 [Example 129, N-[(1R,2R)-2-methoxy-1-{1-[(2R)-1-methoxypropan-2-yl]-5-(trifluoromethoxy)-1H-1,3-benzodiazol-2-yl}propyl]-5-methylpyrazine-2-carboxamide] | 9 |
| COCCn1c([C@@H](NC(=O)c2cnc(C(F)F)cn2)[C@H]2CCOC2)nc2cc(C(F)(F)F)ccc21 [Example 102, 5-(difluoromethyl)-N-[(S)-[1-(2-methoxyethyl)-5-(trifluoromethyl)-1H-1,3-benzodiazol-2-yl][(3R)-oxolan-3-yl]methyl]pyrazine-2-carboxamide] | 13 |
| CCn1c([C@@H](NC(=O)c2cnc(C(F)F)cn2)C2CC2)nc2cc(F)ccc21 [Example 3, N-[(S)-cyclopropyl(1-ethyl-5-fluoro-1H-1,3-benzodiazol-2-yl)methyl]-5-(difluoromethyl)pyrazine-2-carboxamide] | 3 |
| CCn1c([C@@H](NC(=O)c2cnc(C)cn2)[C@]2(O)CCCOC2)nc2ccc(F)cc21 [Example 153, N-[(R)-(1-ethyl-6-fluoro-1H-1,3-benzodiazol-2-yl)[(3R)-3-hydroxyoxan-3-yl]methyl]-5-methylpyrazine-2-carboxamide] | 30 |
| CCn1c([C@@H](NC(=O)c2cnc(C(F)F)cn2)C(C)(C)O)nc2cc(F)c(F)cc21 [Example 57, 5-(difluoromethyl)-N-[(1R)-1-(1-ethyl-5,6-difluoro-1H-1,3-benzodiazol-2-y1)-2-hydroxy-2-methylpropyl]pyrazine-2-carboxamide] | 19 |
| Cn1c([C@@H](NC(=O)c2cnc(C(F)F)cn2)C2CC2)nc2cc(Cl)ccc21 [Example 55, N-[(S)-(5-chloro-1-methyl-1H-1,3-benzodiazol-2-yl)(cyclopropyl)methyl]-5-(difluoromethyl)pyrazine-2-carboxamide] | 7 |

Second part, the molecule after the results:

| IC50 [nM] | Structure (SMILES) |
| --- | --- |
| 8 | COCCn1c([C@@H](NC(=O)c2cnc(C)cn2)[C@H]2CCCOC2)nc2cc(C(F)(F)F)ccc21 [Example 103, N-[(S)-[1-(2-methoxyethyl)-5-(trifluoromethyl)-1H-1,3-benzodiazol-2-yl][(3R)-oxan-3-yl]methyl]-5-methylpyrazine-2-carboxamide] |
| 28 | COCCn1c(C(NC(=O)c2cnc(C)cn2)C2CCOC2)nc2cc(OC(F)(F)F)ccc21 (single isomer, unassigned) [Example 62-2, N-{[1-(2-methoxyethyl)-5-(trifluoromethoxy)-1H-1,3-benzodiazol-2-yl](oxolan-3-yl)methyl}-5-methylpyrazine-2-carboxamide] |
| 28 | Cc1cnc(C(=O)N[C@H](c2nc3cc(F)ccc3n2C)C2CC2)cn1 [Example 51, N-[(S)-cyclopropyl(5-fluoro-1-methyl-1H-1,3-benzodiazol-2-yl)methyl]-5-methylpyrazine-2-carboxamide] |
| 7 | COCCn1c([C@@H](NC(=O)c2cnc(C)cn2)C2CC2)nc2cc(OC(F)F)ccc21 [Example 13, N-[(S)-cyclopropyl[5-(difluoromethoxy)-1-(2-methoxyethyl)-1H-1,3-benzodiazol-2-yl]methyl]-5-methylpyrazine-2-carboxamide] |
| 2 | COCCn1c([C@@H](NC(=O)c2cnc(C)cn2)[C@@H](C)OC)nc2cc(OC(F)(F)F)ccc21 [Example 2, N-[(1R,2R)-2-methoxy-1-[1-(2-methoxyethyl)-5-(trifluoromethoxy)-1H-1,3-benzodiazol-2-yl]propyl]-5-methylpyrazine-2-carboxamide] |
| 20 | CCn1c(C(NC(=O)c2cnc(C)cn2)C2CCOC2)nc2cc(OC(F)(F)F)ccc21 (single isomer, unassigned) [Example 70-2, N-{[1-ethyl-5-(trifluoromethoxy)-1H-1,3-benzodiazol-2-yl](oxolan-3-yl)methyl}-5-methylpyrazine-2-carboxamide] |
| 3 | Cc1cnc(C(=O)N[C@H](c2nc3cc(Cl)ccc3n2CC(F)F)C2CC2)cn1 [Example 158, N-[(S)-[5-chloro-1-(2,2-difluoroethyl)-1H-1,3-benzodiazol-2-yl](cyclopropyl)methyl]-5-methylpyrazine-2-carboxamide] |
| 5 | COCCn1c([C@@H](NC(=O)c2cnc(C(F)F)cn2)C2CC2)nc2cc(F)ccc21 [Example 5, N-[(S)-cyclopropyl[5-fluoro-1-(2-methoxyethyl)-1H-1,3-benzodiazol-2-yl]methyl]-5-(difluoromethyl)pyrazine-2-carboxamide] |
| 6 | COCCn1c([C@@H](NC(=O)c2cnc(C(F)F)cn2)[C@@H]2CCOC2)nc2cc(C(F)(F)F)ccc21 [Example 90, 5-(difluoromethyl)-N-[(S)-[1-(2-methoxyethyl)-5-(trifluoromethyl)-1H-1,3-benzodiazol-2-yl][(3S)-oxolan-3-yl]methyl]pyrazine-2-carboxamide] |
